According to US6368580B1, “Composition suitable as food integrator and for the treatment of intestinal disorders and alterations of the bacterial flora” (Giuliani S.p.A, priority 1999, dated 2002):
Entries after “also recorded” stand apart in the source; their conditions may differ.

Tests used:
Bacillus coagulans [1] = experiment: Lactic acid (L+) production in Bacillus coagulans broth culture; assay type: cell-based; details: 24-hour broth culture to which lysine was added; higher than blank controls or other amino acids
Bacillus coagulans [2] = experiment: Growth of Bacillus coagulans in Sabouraud's broth with added nutrient, optical density by biophotometer; assay type: cell-based; details: for increase in growth of Bacillus coagulans (optical density A630), preliminary evaluations of amino acids: aspartic acid, proline, lysine, tryptophan compared, biophotometer
Protocol: Consequently, microbiological tests have been conducted by adding a number of amino acids (particularly aspartic acid, lysine, proline) to the culture medium specific for Lactobacillus. […] Evaluation of the growth of Bacillus coagulans was performed using and agar/Sabouraud's broth to which 0.5% of yeast extract was added. At this point, an attempt was made to determine which of the various amino acid components present in the yeast (aspartic acid, proline, lysine, tryptophan), and in what concentrations, were able to favor more vigorous development of the microorganism. The increase in growth was evaluated by biophotometer which recorded the optical density (A630).
In special sterilized cuvettes for biophotometry, broth cultures were prepared, with the addition to the base culture medium (10 ml of Sabouraud's broth) of: […]
One cuvette containing Sabouraud's broth alone was used as control. Each of the four broth cultures was subsequently inoculated with 100 μl of a dilution of a broth culture (overnight incubation) of Bacillus coagulans made starting from the lyophilized powder (final concentration of 10^4 cfu/ml).
The growth of the culture was evaluated in terms of optical density, using a biophotometer, which is capable of determining the degree of development on the basis of the increase in turbidity. The curvettes thus prepared were set inside the compartment of the instrument in the presence of a magnetic stirrer that was able to keep the culture in uniform suspension, a condition which enables a proper reading of the turbidity of the culture medium to be made.
The optical density appears on the ordinate, the values proportional to the number of bacteria produced. The time is given on the abscissa. The four curves shown on the graph identify the behavior, respectively, of lysine (at a concentration of 0.025 mg/ml), yeast (5 mg/ml), proline (0.01 mg/ml), and the Sabouraud's culture medium reference standard.

SMILES: NCCCC[C@H](N)C(=O)O [lysine]
- lactic acid (L+) production (Bacillus coagulans [1]): 486 mg/L
- growth of the Lactobacillus cells and formation of lactic acid (L+) (Bacillus coagulans [2]; amino acid added to the culture medium, lysine at concentrations of the order of 0.1-1 mg/ml): enhanced the growth of the Lactobacillus cells and the formation of lactic acid (L^+)
- increase in growth of Bacillus coagulans (optical density A630), preliminary evaluations of amino acids (Bacillus coagulans [2]): best results
- growth of Bacillus coagulans (optical density, growth curve) (Bacillus coagulans [2]; lysine 0.025 mg/ml in Sabouraud's broth, overnight incubation at 37° C., compared with proline 0.01 mg/ml, yeast 5 mg/ml, broth alone): most effective nutrient; also recorded: significantly increases the growth curve, reducing the latency phase and increasing the number of cells

SMILES: O=C(O)[C@@H]1CCCN1 [proline, reference compound]
- increase in growth of Bacillus coagulans (optical density A630), preliminary evaluations of amino acids (Bacillus coagulans [2]): best results
